US8957019B2, “Oligopeptide for treating liver fibrosis and/or treating hepatitis B and/or improving liver function” (priority 2011, dated 2015)
Read-outs that look alike come from different tables or passages of the source. Marks after values point to notes of the source that are not given here. Peptide text beside a SMILES is read from it.

Assays:
[1] = tested on: mice with liver injury induced by carbon tetrachloride; experiment: acute liver injury of mice induced by carbon tetrachloride; format: in vivo, Kunming mice; conditions: for serum ALT activity / serum AST activity: blood 12 h after CCl4; for serum ALT activity / serum AST activity / GSH-PX activity of liver tissue / MDA content of liver tissue: x ± s, n = 12; for GSH-PX activity of liver tissue / MDA content of liver tissue: liver homogenate
Experimental: According to random number table, 60 male Kunming mice were divided into a normal control group, a model control group, a bifendate group, a heptapeptide large dose group and a heptapeptide small dose group, and the latter two groups were administered subcutaneously at 0.17 mg/kg and 0.085 mg/kg, respectively, once every two days for 7 d; the bifendate group was intragastric administered at 100 mg/kg once daily for 7 d; and the normal control group and model control group were administered subcutaneously with the same volume of physiological saline; after 1 h after the last administration, except for the normal control group, other groups were given olive oil solution comprising 0.15% carbon tetrachloride at 5 mL/kg by intraperitoneal injection. Each group was fasted but not restraint from water. Blood was taken from eyeball after 12 h, and the serum was separated for use. The mice were killed after the blood was taken, then dissected and the liver were taken out and homogenized for use. For mice from each group, the ALT, AST activities in the serum, and GSH-Px activity and MDA content in liver tissue were measured according to the kit instruction, and all data were expressed as mean±standard deviation (x±SD), and analysis of variance was used for the hypothesis test of mean value differences between each group.

[2] = tested on: duck hepatitis B virus (DHBV); format: in vivo, Beijing ducks; conditions: for A (3 d after administration was terminated), serum DHBV-DNA level: 3 d after stop; for A (3 d after administration was terminated), serum DHBV-DNA level / A (5 d after administration), serum DHBV-DNA level / A (10 d after administration), serum DHBV-DNA level / A (before administration), serum DHBV-DNA level: x ± s, n = 6; for A (5 d after administration), serum DHBV-DNA level: day 5 of administration; for A (10 d after administration), serum DHBV-DNA level: day 10 of administration; for A (before administration), serum DHBV-DNA level: baseline before administration, absorbance 490 nm
Experimental: 2.1 DHBV infection: Beijing ducks of one-day-old were administered from leg tibia (iv) with high DHBV-DNA positive duck serum. Blood was taken 7 d after infection, followed by the serum being separated and kept at -70° C.
2.2 experiment for pharmaceutical treatment: the DHBV infected ducks were divided into groups randomly, and for the heptapeptide administration groups, 0.5 mg/Kg and 1 mg/Kg were administered by subcutaneous injection, once every two days for 10 d, respectively. As for the virus control group, physiological saline was substituted for drugs. […] Venous blood was taken from the duck leg tibia before administration, on day 5 of administration, on day 10 of administration and 3 d after the administration was stopped. The serum was separated and kept at -70° C. for inspection.
2.3 detecting method: the duck serum for inspection above mentioned was taken and the dynamic level of DHBV-DNA in the serum was detected by simultaneous spotting each batch. DHBV-DNA probe was tagged with 32 p according to the instructions of nick translation kits, and then dot blot hybridization with the duck serum was carried out. The spots on the film were detected by radioautography, and the absorbance (A) (490 nm) was measured. Then density of serum DHBV-DNA was calculated by using the A value of hybridization spots as the level of DHBV-DNA in sample.
2.4 efficacy calculation: the x±s of serum DHBV-DNA levels at different time point for each group was calculated, and it is carried out to compare the states before and after administration for each group by using paired t-test. The inhibition ratio of DHBV-DNA was calculated and the dynamic change of the duck serum DHBV-DNA inhibition ratio for each group was compared. The administration groups were compared with the virus control group by using group t-test. The DHBV-DNA inhibition ratio=(A value before administration-A value after administration)/A value before administrationx100%.

rats with liver fibrosis = experiment: CCl4 liver fibrosis model of rats; format: in vivo, SD rats; conditions: for collogen area of liver tissue / serum ALT level / serum AST level: 8 weeks, x ± s, n = 12
Experimental: 2. Methods: 48 rats were randomly divided into a control group, a model group, a heptapeptide large dose group and a heptapeptide small dose group, each group contains 12 rats. CCI4was formulated into 40% solution with olive oil, and the solution was then injected subcutaneously to the animals at 5 ml/kg twice a week for 8 weeks; the intervention group with GAGPHGG was given the heptapeptide subcutaneously (the concentrations was 0.12 mg/kg and 0.06 mg/kg, respectively, once every two days, 8 weeks) while the model was setting up. The animals of each group were killed at 48 h after the last injection of CCI4, and then serum and liver tissue were taken for detection. The serum ALT, AST and TGFβ1 level were measured according to the kit instruction, and the liver tissue sample was fixed with neutral formalin solution and imbedded with paraffin. 5 ttm tissue section was made by using glass slide coated with polylysine, and it was then stained with HE and Masson triplication collogen for histopathological examination.

[3] = 100 mg/kg intragastric once daily for 7 d
[4] = 0.5 mg/kg s.c. once every two days
[5] = 0.06 mg/kg s.c. once every two days
[6] = 0.12 mg/kg s.c. once every two days
[7] = heptapeptide large dose, P<0.01
[8] = 0.085 mg/kg s.c. once every two days for 7 d
[9] = 0.17 mg/kg s.c. once every two days for 7 d
[10] = large dose and small dose groups, P<0.01

Q: Which “serum ALT activity” value [1, 3] does the source give for `COC(=O)c1cc(OC)c2c(c1-c1c(C(=O)OC)cc(OC)c3c1OCO3)OCO2` [biphenyldicarboxylate, bifendate, reference compound] here?
A: Its value is 92.36 ± 35.27 U/L.

Q: What about the “serum AST activity” value [1, 3] of the same compound?
A: The value was 156.24 ± 34.12 U/L.

Q: And the “GSH-PX activity of liver tissue” value [1, 3]?
A: Its value is 296.82 ± 18.31 µmol/g.

Q: What about the “MDA content of liver tissue” value [1, 3] of the same compound?
A: The value was 5.29 ± 1.25 µmol/g.

Q: With `C[C@H](NC(=O)CN)C(=O)NCC(=O)N1CCC[C@H]1C(=O)N[C@@H](Cc1c[nH]cn1)C(=O)NCC(=O)NCC(=O)O` [heptapeptide, Gly-Ala-Gly-Pro-His-Gly-Gly] (H-GAGPHGG-OH; N-terminus assumed) as the compound, how does the “A (3 d after administration was terminated), serum DHBV-DNA level” value ([2]; 0.5 mg/kg s.c. once every two days for 10 d) read?
A: The value was 1.184 ± 0.19.

Q: And the “A (5 d after administration), serum DHBV-DNA level” value [2, 4]?
A: The value was 1.239 ± 0.16.

Q: What about the “A (10 d after administration), serum DHBV-DNA level” value [2, 4] of the same compound?
A: Its value is 1.198 ± 0.18.

Q: What about the “inhibition of duck hepatitis B virus (conclusion)” value ([2]; 1 mg/kg) of the same compound?
A: The value was “can inhibit duck hepatitis B virus to some extent”.

Q: What about the “A (3 d after administration was terminated), serum DHBV-DNA level” value ([2]; 1 mg/kg s.c. once every two days for 10 d, P < 0.01 vs control) of the same compound?
A: The value was 0.884 ± 0.16.

Q: What about the “A (5 d after administration), serum DHBV-DNA level” value ([2]; 1 mg/kg s.c. once every two days) of the same compound?
A: Its value is 1.204 ± 0.21.

Q: What about the “A (10 d after administration), serum DHBV-DNA level” value ([2]; 1 mg/kg s.c. once every two days, P < 0.01 vs control) of the same compound?
A: Its value is 0.893 ± 0.13.

Q: What about the “A (before administration), serum DHBV-DNA level” value ([2]; heptapeptide 0.5 mg/kg s.c. once every two days for 10 d) of the same compound?
A: The value was 1.286 ± 0.12.

Q: What about the “A (before administration), serum DHBV-DNA level” value ([2]; heptapeptide 1 mg/kg s.c. once every two days for 10 d) of the same compound?
A: The value was 1.274 ± 0.14.

Q: And the “collogen area of liver tissue” value (rats with liver fibrosis; [5])?
A: The value was 380.82 ± 78.89 μm^2.

Q: What about the “serum ALT level” value (rats with liver fibrosis; [5]) of the same compound?
A: The value was 148.24 ± 32.52 U/L.

Q: What about the “serum AST level” value (rats with liver fibrosis; [5]) of the same compound?
A: The value was 180.35 ± 28.49 U/L.

Q: And the “collogen area of liver tissue” value (rats with liver fibrosis; [6])?
A: Its value is 138.12 ± 62.58** μm^2.

Q: And the “serum ALT level” value (rats with liver fibrosis; [6])?
A: Its value is 96.37 ± 35.12 U/L.

Q: And the “serum AST level” value (rats with liver fibrosis; [6])?
A: The value was 108.75 ± 42.21 U/L.

Q: What about the “mean area of liver collagen compared with model group” value (rats with liver fibrosis; [7]) of the same compound?
A: Its value is “also decreased significantly”.

Q: What about the “serum TGFβ1 level compared with model group” value (rats with liver fibrosis; [7]) of the same compound?
A: Its value is “decreased significantly”.

Q: What about the “serum TGFβ1 level and liver collagen area compared with model group” value (rats with liver fibrosis; heptapeptide small dose group) of the same compound?
A: Its value is “had a decreasing trend, but not statistically significant”.

Q: What about the “ALT and AST levels compared with model control group” value (rats with liver fibrosis; large dose (0.12 mg/kg) and small dose (0.06 mg/kg) groups, P<0.01) of the same compound?
A: Its value is “significantly declined”.

Q: And the “anti-liver fibrosis effect (conclusion)” value (rats with liver fibrosis; rats, CCl4)?
A: Its value is “has some anti-liver fibrosis effect”.

Q: What about the “serum ALT activity” value [1, 8] of the same compound?
A: The value was 123.24 ± 19.73 U/L.

Q: And the “serum AST activity” value [1, 8]?
A: Its value is 186.97 ± 37.56 U/L.

Q: And the “GSH-PX activity of liver tissue” value [1, 8]?
A: Its value is 267.18 ± 32.13 µmol/g.

Q: What about the “MDA content of liver tissue” value [1, 8] of the same compound?
A: Its value is 6.48 ± 1.65 µmol/g.

Q: And the “serum ALT activity” value [1, 9]?
A: Its value is 86.52 ± 28.72 U/L.

Q: And the “serum AST activity” value [1, 9]?
A: Its value is 148.62 ± 31.25 U/L.

Q: And the “GSH-PX activity of liver tissue” value [1, 9]?
A: The value was 308.28 ± 38.54 µmol/g.

Q: And the “MDA content of liver tissue” value [1, 9]?
A: The value was 2.75 ± 1.36 µmol/g.

Q: And the “serum ALT, AST activities compared with model control group” value ([1]; large dose (0.17 mg/kg) and small dose (0.085 mg/kg) groups, P <0.01)?
A: Its value is “declined significantly”.

Q: And the “liver tissue GSH-Px activities compared with model control group” value [1, 10]?
A: The value was “significantly higher than that of the model control group”.

Q: What about the “liver tissue MDA content compared with model control group” value [1, 10] of the same compound?
A: The value was “significantly lower than that of the model control group”.

Q: And the “protection for acute liver injury (conclusion)” value ([1]; mice, carbon tetrachloride)?
A: Its value is “presents protection for the acute liver injury resulted from carbon tetrachloride”.
